Results taken from patent publication US9416095B2, “Salts, crystals, complexes, and derivatives of threonine diacetic acid, a process to prepare threonine diacetic acid, and the use thereof” (Akzo Nobel Chemicals International B.V., priority 2013, dated 2016).

Assays:
Format in all cases: physicochemical
[1] = Cyclisation to the 6-oxomorpholine ring-closed form in DMSO-d6/TFA, monitored by 1H NMR; details: 30% aqueous disodium salt in DMSO-d6/TFA 80:20 w/w, ambient temperature
Experimental: A 30% aqueous solution of disodium threonine diacetate (129 mg) was mixed well with a DMSO-d6/TFA solution (2761 mg, 80:20 w/w) and changes in the obtained mixture were monitored by ^1H NMR at ambient temperature. The steady state was reached after 40 minutes with a conversion of 90% of THDA to cyclic-THDA.
A 30% aqueous solution of disodium serine diacetate (136 mg) was mixed well with a DMSO-d6/TFA solution (2911 mg, 80:20 w/w) and changes in the obtained mixture were monitored by ^1H NMR at ambient temperature. The steady state was reached after 100 minutes with a conversion of 43% of SerDA to cyclic-SerDA. The above experiments support that THDA can be used in applications that relate to dissolving carbonate or sequestering iron, such as use in the oil field (e.g. dissolving CaCO3 and controlling iron in subterranean treatment), use in a feed, food or micronutrient composition (e.g. complexing iron and calcium for delivery to growing substrates), use in detergents and water treatments (e.g. sequestering calcium from water to soften water and sequestering iron present in stains), and many more uses.

[2] = Dissolving insoluble calcium salts (CaCO3 stirred with THDA.Na3 solution, calcium in filtrate by ICP)
Experimental: A mixture of CaCO3 (1.26 g, […]), 37.8 wt % THDA.Na3 in water (15 g, 18.8 mM), and water (45 g) was vigorously stirred for 6 h. The experiment was performed at room temperature and at 50° C. Samples (1 ml) were taken from the mixture every 0.5 h and filtered through a 0.45 μm filter. The concentration of calcium in the filtered samples was determined using the ICP method.

[3] = Potentiometric titration with FeCl3, iron total sequestering value (Fe-TSV)
Description: Potentiometric titration of THDA with FeCl3 at pH 3-4 and 11.5 gave the iron total sequestering values (Fe-TSV) of 37.8 and 27.8%, respectively. […] All Fe(III) is bound by THDA at pH 3-4.

Row | Structure (SMILES) | conversion to cyclic form at steady state [1] [%] | time to reach steady state of cyclisation [1] [min] | speed of CaCO3 dissolution at 50° C. versus room temperature ([2]; 50° C.) | dissolution of CaCO3 ([2]; CaCO3 12.6 mM, THDA.Na3 18.8 mM in water, stirred 6 h, room temperature and 50° C.) | iron total sequestering value (Fe-TSV) ([3]; pH 3-4) [%] | iron total sequestering value (Fe-TSV) ([3]; pH 11.5) [%]
1 | O=C(O)CN(CC(=O)O)[C@@H](CO)C(=O)O [SerDA, serine-N,N-diacetic acid, reference compound] | 43 | 100 | – | – | – | –
2 | C[C@@H](O)[C@@H](C(=O)O)N(CC(=O)O)CC(=O)O.[Na+].[Na+].[Na+] [THDA.Na3, Trisodium Threonine Diacetate] | – | – | noticeably faster | significant amount | – | –
3 | C[C@@H](O)[C@@H](C(=O)O)N(CC(=O)O)CC(=O)O [THDA, threonine-N,N-diacetic acid] | 90 | 40 | – | – | 37.8 | 27.8
